Reference: paper PMC6981123 (2020)

Tests used:
[1] = tested on: h-TELO (dual-labeled) (DNA, G4) AGGGTTAGGGTTAGGGTTAGGG; test: FRET melting; details: 100 mM K+; 10 mM HEPES, pH 7.4; MG 1.5 μM (3 equiv.), DNA 0.5 μM; Tm 49 to 76 °C
[2] = tested on: h-TELO (DNA, G4) AGGGTTAGGGTTAGGGTTAGGG; test: ITC; details: 100 mM K+; 10 mM HEPES, pH 7.4, 298 K; h-TELO 5 μM in cell
[3] = tested on: h-TELO (DNA, G4) AGGGTTAGGGTTAGGGTTAGGG; test: fluorescence titration of MG emission; details: 100 mM K+; 10 mM HEPES, pH 7.4, 25 °C; MG 10 μM, h-TELO 0-6 μM

ΔTm [1]: 27 °C
Kd [2]: 4.48 µM
Kd [3]: 3.2 µM
Structure (SMILES): CCCCCCCCCCCCCCCCCC(=O)NCc1cn(CCCC(=O)OC[C@H]2O[C@@H](n3cnc4c(=O)[nH]c(N)nc43)[C@@H]3OC(C)(C)O[C@@H]32)nn1
